Measured values reported in patent publication US20240366624A1, “METHODS AND COMPOSITIONS FOR TREATING THROMBOTIC DISEASE” (Washington University, priority 2023, published 2024).

Assays:
[1] = thiol-reacting (GSH) activity assay; format: biochemical; settings: 100 μM
From the text: (§1) FIG. 17(A-F) is an exemplary embodiment of identification of novel ERO1α inhibitors by high throughput screening in accordance with the present disclosure. FIG. 17A: A scheme of an ERO1α activity assay. FIG. 17B: Screening of chemical libraries in the ERO1α activity assay. FIG. 17C: The inhibitory effect of selected compounds on ERO1α activity. FIG. 17D: The inhibitory effect of selected compounds on PDI activity. FIG. 17E: The inhibitory effect of selected compounds on H2O2 activity. FIG. 17F: The inhibitory effect of selected compounds on thiol-reacting activity. The data represent the mean±SD (n=3). *P<0.05, **P<0.01, ***P<0.001, and ****P<0.0001 vs. vehicle control, Student's t-test.
(§2) To identify a novel ERO1α inhibitor, 5800 compounds were screened using an ERO1α activity assay (FIG. 17A and FIG. 17B). […] The selected compounds were further tested in assays measuring PDI, antioxidant, and thiol-reacting activities (FIG. 17D through FIG. 17F). […] B12 inhibited P-selectin exposure and αIIbβ3 activation in agonist-activated mouse and human platelets in a concentration-dependent manner (FIG. 18B through FIG. 18E).

ERO1α = target: T1, ERO1α (Homo sapiens, UniProt Q96HE7); assay: ERO1α activity assay; format: biochemical; settings: 20 μM
T1 sequence (Q96HE7 24-468): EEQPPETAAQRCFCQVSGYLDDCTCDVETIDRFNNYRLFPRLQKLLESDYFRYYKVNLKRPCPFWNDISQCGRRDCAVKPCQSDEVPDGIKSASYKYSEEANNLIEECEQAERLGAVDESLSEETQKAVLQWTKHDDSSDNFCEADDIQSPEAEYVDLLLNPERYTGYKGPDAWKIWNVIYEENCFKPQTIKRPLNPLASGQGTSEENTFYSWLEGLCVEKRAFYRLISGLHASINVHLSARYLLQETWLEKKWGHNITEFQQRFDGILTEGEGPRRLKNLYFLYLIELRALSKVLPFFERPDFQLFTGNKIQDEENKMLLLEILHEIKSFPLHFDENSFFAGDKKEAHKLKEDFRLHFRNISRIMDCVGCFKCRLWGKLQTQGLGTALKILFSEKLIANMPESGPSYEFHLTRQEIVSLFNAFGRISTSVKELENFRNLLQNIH
From the text: as §1, §2

PDI = PDI (Homo sapiens, UniProt P07237); assay: PDI activity assay; format: biochemical; settings: 100 μM
From the text: as §1, §2

[2] = target: T2, MAO-A (monoamine oxidase A) (Homo sapiens, UniProt P21397); assay: MAO-A activity assay; format: biochemical; settings: 100 μM
T2 sequence (P21397 1-527): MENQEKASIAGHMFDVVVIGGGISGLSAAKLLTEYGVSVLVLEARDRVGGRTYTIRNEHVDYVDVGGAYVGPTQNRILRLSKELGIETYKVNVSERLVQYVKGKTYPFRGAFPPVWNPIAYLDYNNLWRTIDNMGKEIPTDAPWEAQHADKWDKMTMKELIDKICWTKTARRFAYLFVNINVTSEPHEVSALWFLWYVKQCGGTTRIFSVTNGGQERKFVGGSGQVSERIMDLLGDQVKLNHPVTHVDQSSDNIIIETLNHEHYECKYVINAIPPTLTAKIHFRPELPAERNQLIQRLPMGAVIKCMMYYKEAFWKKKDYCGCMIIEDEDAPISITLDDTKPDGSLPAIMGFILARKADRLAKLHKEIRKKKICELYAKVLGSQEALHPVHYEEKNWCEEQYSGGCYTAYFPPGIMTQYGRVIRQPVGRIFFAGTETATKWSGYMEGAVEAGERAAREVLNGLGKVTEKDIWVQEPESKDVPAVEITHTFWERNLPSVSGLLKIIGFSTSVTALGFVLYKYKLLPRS

[3] = H2O2 (antioxidant) activity assay; format: biochemical; settings: 100 μM
From the text: as §1, §2

Ero1α-null platelets = assay: Platelet aggregation, Ero1α-null platelets; format: cell-based, mouse; settings: 50 μg/mL protein, 0.025 U/mL thrombin
Experimental: FIG. 7(A-L) is an exemplary embodiment of crucial intracellular ERO1α (endoplasmic reticulum oxidoreductase 1a) for platelet activation, aggregation, and thrombus formation in accordance with the present disclosure. FIG. 7A: Ex vivo platelet thrombus formation in a flow chamber assay. Adherent and aggregated platelets were stained with rhodamine-conjugated phalloidin and imaged by confocal microscopy. Representative images (bar, 10 μm). Surface coverage and thrombus volume were measured (mean±SD, n=4). FIG. 7(B-E): Aggregation and ATP secretion of wild type (WT) and Ero1α-null platelets were induced by 0.025 U/mL thrombin, 0.05 μg/mL CRP (collagen-related peptide), 0.5 μM A23187, or 2.5 μM ADP. Platelet aggregation (i) and ATP secretion (ii). FIG. 7F: Ero1α-null platelets were pretreated with 50 μg/mL wtERO1α or wtPDI and then with 0.025 U/mL thrombin. Quantification graphs of aggregation and ATP secretion are presented as the mean±SD (n=3-4). FIG. 7G and FIG. 7H: P-selectin exposure and αIIbβ3 integrin activation of WT and Ero1α-null platelets were analyzed by flow cytometry. The data are presented as the geometric mean fluorescence intensity (MFI) value (mean±SD, n=3-4). FIG. 7I: WT and Ero1α-null platelets were treated with or without 0.025 U/mL thrombin for 1 minute in an aggregometer. The lysates were immunoprecipitated with control IgG or anti-β3 antibodies and subjected to immunoblotting with antibodies against talin1 or β3 and densitometric analysis (mean±SD, n=3). FIG. 7J: WT and Ero1α-null platelets were treated with or without 0.025 U/mL thrombin, followed by transmission electron microscopy. The original magnification was 34 800, and the extension was 313 000. Bar, 500 nm. FIG. 7K and FIG. 7L: Intravital microscopy was performed to determine the effect of 15E9 (1-3 μg/g body weight [BW]) and a blocking anti-PDI (protein disulfide isomerase) antibody (BD34, 3 μg/g BW) on platelet thrombus formation and fibrin generation at the site of laser-induced cremaster arteriolar injury (n=27-40 arterioles in 6 mice per group). The n indicates biological replicates. P values determined by unpaired Student t test (FIG. 7(A-E) and FIG. 7(G-1)), ANOVA and Dunnett test (FIG. 7F), or Mann-Whitney U test (FIG. 7K and FIG. 7L).
FIG. 9(A-C) is an exemplary embodiment of EN460 inhibiting thrombin-induced aggregation of mouse and human platelets in accordance with the present disclosure. […] P values determined by ANOVA and Dunnett's test (FIG. 9(A-B)) or Student's t-test (FIG. 9C).
FIG. 10(A-E) is an exemplary embodiment of 15E9 not affecting platelet activation and aggregation in accordance with the present disclosure. […] P values determined by unpaired Student's t-test (vs. mIgG1). […]

Chain of PDI (P07237 18-508, species assumed): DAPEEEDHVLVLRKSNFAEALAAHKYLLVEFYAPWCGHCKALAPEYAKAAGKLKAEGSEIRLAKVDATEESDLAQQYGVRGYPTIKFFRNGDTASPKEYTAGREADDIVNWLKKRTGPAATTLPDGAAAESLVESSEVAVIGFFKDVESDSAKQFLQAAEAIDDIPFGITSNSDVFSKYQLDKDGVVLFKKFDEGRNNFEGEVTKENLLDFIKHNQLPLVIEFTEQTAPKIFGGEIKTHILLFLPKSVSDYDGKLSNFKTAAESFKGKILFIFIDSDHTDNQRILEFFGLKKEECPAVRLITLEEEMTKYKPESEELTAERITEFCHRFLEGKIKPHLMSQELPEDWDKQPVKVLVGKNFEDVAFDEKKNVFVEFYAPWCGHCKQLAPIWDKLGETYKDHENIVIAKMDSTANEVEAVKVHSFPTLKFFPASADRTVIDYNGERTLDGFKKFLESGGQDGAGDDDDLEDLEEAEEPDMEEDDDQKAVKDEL

| ERO1α inhibition at 20 μM (%) (ERO1α) | PDI inhibition at 100 μM (%) (PDI) | MAO-A inhibition at 100 μM (%) [2] [%] | Compound | GSH inhibition at 100 μM (%) [1] [%] | H2O2 inhibition at 100 μM (%) [3] [%] | rescue of the defect in Ero1α-null platelet aggregation (Ero1α-null platelets) |
| --- | --- | --- | --- | --- | --- | --- |
| 82.3 ± 20 | 23.1 ± 5 | 28.1 ± 5 | Cc1nc2ccccc2nc1SCC(=O)N1c2ccccc2Sc2ccccc21 [B12-11] | 33.5 ± 4 | 2.3 ± 1 |  |
| 59.0 ± 6 | 21.4 ± 6 | 28.3 ± 5 | CCCn1c2ccccc2c2nnc(SCC(=O)N3c4ccccc4Sc4ccccc43)nc21 [B12-14] | 31.9 ± 5 | 3.4 ± 1 |  |
| 75.5 ± 20 | 30.3 ± 8 | 39.1 ± 8 | CCCn1c(SCC(=O)N2c3ccccc3Sc3ccccc32)nc2ccccc21 [B12-7] | 33.3 ± 10 | 1.9 ± 1 |  |
| 60.5 ± 8 | 38.5 ± 8 | 28.8 ± 6 | O=C(COc1nc2ccccc2s1)N1c2ccccc2Sc2ccccc21 [B12-22] | 62.5 ± 7 | 4.9 ± 1 |  |
| 53.7 ± 9 | 19.1 ± 4 | 36.7 ± 8 | COc1ccc2nc(SCC(=O)n3c4ccccc4c4ccccc43)nc(C)c2c1 [B12-13*] | 33.1 ± 4 | 4.2 ± 1 |  |
| 82.3 ± 15 | 6.7 ± 2 | 50.2 ± 7 | Cc1cc(O)nc(SCC(=O)N2c3ccccc3Sc3ccccc32)n1 [B12-20] | 10.2 ± 2 | 2.3 ± 1 |  |
| 48.6 ± 10 | 8.6 ± 3 | 22.3 ± 5 | O=C(COc1nc2ccccc2s1)n1c2ccccc2c2ccccc21 [B12-8*] | 13.6 ± 3 | 0.3 ± 0.1 |  |
| 83.9 ± 16 | 12.4 ± 5 | 37.5 ± 7 | COc1cc(O)nc(SCC(=O)N2c3ccccc3Sc3ccccc32)n1 [B12-18] | 25.9 ± 5 | 0.2 ± 0.1 |  |
| 11.5 ± 3 | 11.9 ± 3 | 34.3 ± 6 | CCCc1cc(O)nc(SCC(=O)N2c3ccccc3Sc3ccccc32)n1 [B12-16] | 21.9 ± 6 | 80.0 ± 18 |  |
| 87.6 ± 17 | 20.2 ± 4 | 37.7 ± 8 | N#Cc1cc(SCC(=O)N2c3ccccc3Sc3ccccc32)nc2c1CCCC2 [B12-6] | 30.1 ± 10 | 1.7 ± 1 |  |
|  |  |  | wtPDI: recombinant wild-type PDI |  |  | did not rescue |

| Compound | ERO1α inhibition at 20 μM (%) (ERO1α) | PDI inhibition at 100 μM (%) (PDI) | MAO-A inhibition at 100 μM (%) [2] [%] | GSH inhibition at 100 μM (%) [1] [%] | H2O2 inhibition at 100 μM (%) [3] [%] | rescue of the defect in Ero1α-null platelet aggregation (Ero1α-null platelets) |
| --- | --- | --- | --- | --- | --- | --- |
| O=C(COc1ccccc1)N1c2ccccc2Sc2ccccc21 [B12-3] | 57.0 ± 19 | 10.2 ± 3 | 24.8 ± 4 | 22.3 ± 7 | 2.1 ± 1 |  |
| O=C(COc1ccc(O)cc1)N1c2ccccc2Sc2ccccc21 [B12-4] | 74.0 ± 17 | 13.2 ± 3 | 34.8 ± 4 | 27.2 ± 7 | 6.0 ± 2 |  |
